Test results from PMC11595589, “A Pharmacokinetic and Bioavailability Study of Ecklonia cava Phlorotannins Following Intravenous and Oral Administration in Sprague–Dawley Rats” (Marine Drugs, 2024).

Experiment: Relative polarity by RP-HPLC of EK-ECP
Assay type: physicochemical
Details: RP-HPLC chromatogram of EK-ECP
Protocol: A further detailed analysis of the phlorotannins present in EK-ECP was performed to identify and quantify the major components (individual phlorotannins) by reversed phase high performance liquid chromatography (RP-HPLC). A representative HPLC (Column: CAPCELL PAK C18; Detector: UV 234 nm) chromatogram and the identification of major components are presented in Figure 3. As shown in the chromatogram, dieckol at retention time 15.65 min was the most notable compound in EK-ECP. The chromatogram could be divided to relatively high (6–13 min), mid (13~20 min) and low polarity region (20~27 min) and each region could be represented by the regionally most notable peak 8,8′-bieckol, dieckol and PFF-A, respectively. These three phlorotannins were selected for monitoring the blood samples upon administration of EK-ECP during pharmacokinetic (PK) experiment. Other minor phlorotannins than the three notable ones identified were 2-O-(2,4,6-Trihydroxyphenyl)-6,6′-bieckol (7.217 min), 6,6′-bieckol (7.717 min), 7-phloroeckol (7.717 min), 2-phloroeckol (9.883 min), eckol (10.450 min), dioxinodehydroeckol (23.100 min) and fucofuroeckol A (23.650 min). Other notable peaks, such as those at 12.133, 17.483, 20.833, and 21.250 min, remain unidentified due to the technical challenges in isolating and identifying the corresponding single compounds.
The hydroxyl protons observed in the phlorotannin structures are attached to aromatic rings, resulting in distinct downfield shifts (near 9 ppm) due to the electron-withdrawing effects of the aromatic system. This contrasts with the hydroxyl groups found in aliphatic alcohols in general. […]
^1H NMR (500 MHz) was acquired on Bruker Avance III 500 MHz NMR spectrometer (Bruker Corporation, Billerica, MA, USA) using DMSO-d6 as a solvent. […] To quantify the total polyphenolic content of EK-ECP, the Folin–Ciocalteu reagent was reacted with EK-ECP dissolved in 50% aqueous ethanol, and the resulting solution was analyzed using a UV–Vis spectrophotometer (SPECTROstarNano, BMG Labtech, Ortenberg, Germany) at 725 nm. […]

SMILES | relative polarity within the phlorotannin extract
Oc1cc(O)cc(Oc2c(O)cc(O)c3c2Oc2c(cc(O)c(-c4c(O)cc5c(c4O)Oc4c(Oc6cc(O)cc(O)c6)c(O)cc(O)c4O5)c2O)O3)c1 [8,8′-bieckol] | the most hydrophilic
Oc1cc(O)cc(Oc2c(O)cc(O)c3c2Oc2c(O)cc4oc5c(Oc6cc(O)cc(O)c6)c(O)cc(O)c5c4c2O3)c1 [PFF-A, phlorofucofuroeckol-A] | the most lipophilic
Oc1cc(O)cc(Oc2c(O)cc(O)c3c2Oc2c(O)cc(Oc4c(O)cc(Oc5c(O)cc(O)c6c5Oc5c(O)cc(O)cc5O6)cc4O)cc2O3)c1 [dieckol] | in between
